# Test: In vivo cytokine assay, plasma of Renca tumor-bearing mice
# Design: species or system mouse; IFNg production in plasma / IL-1b production in plasma / IL-6 production in plasma / IL12p70 production in plasma / IP10 production in plasma / MIP1a production in plasma / MIP1b production in plasma / TNFa production in plasma: unit not given here
# Procedure: Cytokines were measured in mouse plasma harvested at 3, 6, 24, or 48 hours after treatment with compounds or ADCs using a Milliplex MAP mouse cytokine/chemokine magnetic bead panel assay kit (MCYTOMAG-70k custom 11-plex kit: MCP1, MIP1α, MIP1β, TNFα, IFNγ, IL-10, IL-12p70, IL-6, IL-1β, IP10, RANTES) and analyzed using a Luminex™ MAGPIX™ Instrument System. Values that were outside of the standard curve range (<3.2 or […]) were excluded from calculation of the mean values.
structure (smiles),measurement,setting,value
CCn1nc(C)cc1C(=O)Nc1nc2cc(C(N)=O)cc(OC)c2n1C/C=C/Cn1c(NC(=O)c2cc(C)nn2CC)nc2cc(C(N)=O)cc(OCCCNC)c21 [Compound 12a],IP10 production in plasma,"0.6 mg/kg, dose #1, 24 h",381.8
same,MCP-1 production in plasma,"0.6 mg/kg, dose #1, 24 h",141.5
same,MIP1a production in plasma,"0.6 mg/kg, dose #1, 24 h",<3.2
same,MIP1b production in plasma,"0.6 mg/kg, dose #1, 24 h",<3.2
same,RANTES production in plasma,"0.6 mg/kg, dose #1, 24 h",46.2
same,TNFa production in plasma,"0.6 mg/kg, dose #1, 24 h",5.2
same,IFNg production in plasma,"0.6 mg/kg, dose #1, 48 h",<3.2
same,IL12p70 production in plasma,"0.6 mg/kg, dose #1, 48 h",<3.2
same,IL-1b production in plasma,"0.6 mg/kg, dose #1, 48 h",5.7
same,IL-6 production in plasma,"0.6 mg/kg, dose #1, 48 h",1.8
same,IL-10 production in plasma,"0.6 mg/kg, dose #1, 48 h",<3.2
same,IP10 production in plasma,"0.6 mg/kg, dose #1, 48 h",218.4
same,MCP-1 production in plasma,"0.6 mg/kg, dose #1, 48 h",40.0
same,MIP1a production in plasma,"0.6 mg/kg, dose #1, 48 h",10.3
same,MIP1b production in plasma,"0.6 mg/kg, dose #1, 48 h",<3.2
same,RANTES production in plasma,"0.6 mg/kg, dose #1, 48 h",5.0
same,TNFa production in plasma,"0.6 mg/kg, dose #1, 48 h",<3.2
same,IFNg production in plasma,"0.6 mg/kg, dose #2, 6 h",41.5
same,IL12p70 production in plasma,"0.6 mg/kg, dose #2, 6 h",28.4
same,IL-1b production in plasma,"0.6 mg/kg, dose #2, 6 h",5.8
same,IL-6 production in plasma,"0.6 mg/kg, dose #2, 6 h",516.9
same,IL-10 production in plasma,"0.6 mg/kg, dose #2, 6 h",<3.2
same,IP10 production in plasma,"0.6 mg/kg, dose #2, 6 h",3996.6
same,MCP-1 production in plasma,"0.6 mg/kg, dose #2, 6 h",9761.2
same,MIP1a production in plasma,"0.6 mg/kg, dose #2, 6 h",115.5
same,MIP1b production in plasma,"0.6 mg/kg, dose #2, 6 h",837.6
same,RANTES production in plasma,"0.6 mg/kg, dose #2, 6 h",621.6
same,TNFa production in plasma,"0.6 mg/kg, dose #2, 6 h",16.7
same,IFNg production in plasma,"1.8 mg/kg, dose #1, 3 h",<3.2
same,IL12p70 production in plasma,"1.8 mg/kg, dose #1, 3 h",3.1
same,IL-1b production in plasma,"1.8 mg/kg, dose #1, 3 h",7.5
same,IL-6 production in plasma,"1.8 mg/kg, dose #1, 3 h",4314.6
same,IL-10 production in plasma,"1.8 mg/kg, dose #1, 3 h",27.3
same,IP10 production in plasma,"1.8 mg/kg, dose #1, 3 h",8222.7
same,MCP-1 production in plasma,"1.8 mg/kg, dose #1, 3 h",5805.3
same,MIP1a production in plasma,"1.8 mg/kg, dose #1, 3 h",1052.6
same,MIP1b production in plasma,"1.8 mg/kg, dose #1, 3 h",7438.6
same,RANTES production in plasma,"1.8 mg/kg, dose #1, 3 h",51.2
same,TNFa production in plasma,"1.8 mg/kg, dose #1, 3 h",46.4
same,IFNg production in plasma,"1.8 mg/kg, dose #1, 6 h",36.4
same,IL12p70 production in plasma,"1.8 mg/kg, dose #1, 6 h",<3.2
same,IL-1b production in plasma,"1.8 mg/kg, dose #1, 6 h",0.7
same,IL-6 production in plasma,"1.8 mg/kg, dose #1, 6 h",543.0
same,IL-10 production in plasma,"1.8 mg/kg, dose #1, 6 h",9.9
same,IP10 production in plasma,"1.8 mg/kg, dose #1, 6 h",7589.2
same,MCP-1 production in plasma,"1.8 mg/kg, dose #1, 6 h",13861.5
same,MIP1a production in plasma,"1.8 mg/kg, dose #1, 6 h",172.2
same,MIP1b production in plasma,"1.8 mg/kg, dose #1, 6 h",1162.7
same,RANTES production in plasma,"1.8 mg/kg, dose #1, 6 h",526.2
same,TNFa production in plasma,"1.8 mg/kg, dose #1, 6 h",21.2
same,IFNg production in plasma,"1.8 mg/kg, dose #1, 24 h",<3.2
same,IL12p70 production in plasma,"1.8 mg/kg, dose #1, 24 h",<3.2
same,IL-1b production in plasma,"1.8 mg/kg, dose #1, 24 h",3.2
same,IL-6 production in plasma,"1.8 mg/kg, dose #1, 24 h",6.8
same,IL-10 production in plasma,"1.8 mg/kg, dose #1, 24 h",<3.2
same,IP10 production in plasma,"1.8 mg/kg, dose #1, 24 h",595.6
same,MCP-1 production in plasma,"1.8 mg/kg, dose #1, 24 h",143.9
same,MIP1a production in plasma,"1.8 mg/kg, dose #1, 24 h",10.3
same,MIP1b production in plasma,"1.8 mg/kg, dose #1, 24 h",<3.2
same,RANTES production in plasma,"1.8 mg/kg, dose #1, 24 h",48.8
same,TNFa production in plasma,"1.8 mg/kg, dose #1, 24 h",3.2
same,IFNg production in plasma,"1.8 mg/kg, dose #1, 48 h",<3.2
same,IL12p70 production in plasma,"1.8 mg/kg, dose #1, 48 h",<3.2
same,IL-1b production in plasma,"1.8 mg/kg, dose #1, 48 h",3.2
same,IL-6 production in plasma,"1.8 mg/kg, dose #1, 48 h",1.5
same,IL-10 production in plasma,"1.8 mg/kg, dose #1, 48 h",<3.2
same,IP10 production in plasma,"1.8 mg/kg, dose #1, 48 h",223.5
same,MCP-1 production in plasma,"1.8 mg/kg, dose #1, 48 h",2.0
same,MIP1a production in plasma,"1.8 mg/kg, dose #1, 48 h",<3.2
same,MIP1b production in plasma,"1.8 mg/kg, dose #1, 48 h",<3.2
same,RANTES production in plasma,"1.8 mg/kg, dose #1, 48 h",<3.2
same,TNFa production in plasma,"1.8 mg/kg, dose #1, 48 h",3.2
same,IFNg production in plasma,"1.8 mg/kg, dose #2, 6 h",80.4
same,IL12p70 production in plasma,"1.8 mg/kg, dose #2, 6 h",28.4
same,IL-1b production in plasma,"1.8 mg/kg, dose #2, 6 h",4.6
same,IL-6 production in plasma,"1.8 mg/kg, dose #2, 6 h",1681.6
same,IL-10 production in plasma,"1.8 mg/kg, dose #2, 6 h",7.7
same,IP10 production in plasma,"1.8 mg/kg, dose #2, 6 h",4151.5
same,MCP-1 production in plasma,"1.8 mg/kg, dose #2, 6 h",17185.9
same,MIP1a production in plasma,"1.8 mg/kg, dose #2, 6 h",209.9
same,MIP1b production in plasma,"1.8 mg/kg, dose #2, 6 h",1407.7
same,RANTES production in plasma,"1.8 mg/kg, dose #2, 6 h",892.1
same,TNFa production in plasma,"1.8 mg/kg, dose #2, 6 h",46.4
same,systemic pro-inflammatory cytokine (IL-6 and TNF) production,plasma of tumor-bearing mice,induced robust production of IL-6 and TNF
